Measurements from patent US20050119344A1, “Medium for radical treatment of tumors, inflammatory processes, fungal infections and other affections of the tissues, diagnostic and prophylactic and method of its implementation” (priority 2001, published 2005).

Columns and labels:
[1] = tested on: pathologically altered tissue; details: very weak solutions, in the range of 10%
Source text: By broader studies can be composed a table for the painfulness of the reaction by the different groups of tumors and other types of tissue alteration, depending on the solution concentration, the time of influence, for example by rub in and the deepness of the alteration.
The method has been applied for diagnostic of breast cancer.

[2] = tested on: malign formation in the milk gland
Source text: (§1) The treatment is provided by rub in the medium with a tampon impregnated with it, directly in the tumor (by the skin ones), or in the accessible surface of the healthy tissue situated near by it. The rub in takes place repeatedly, with waiting for the absorption of the solution, until the tumor is saturated with formic acid in such a degree, that the blood in its blood-vessels coagulates and so that the tumor will be necrotized. […] By the benign tumor the treatment shall include mechanical irritation of its tissue too, with the purpose to stimulate the blood-circulation in it, by which the blood-vessels will be filled out and their surface will be enlarged on the account of the thickness of their walls. Such a treatment can be utilized, if necessary, by the malignant tumors too.
In the concrete case the treatment is applied on the spouse and respectively parent of the inventors. The women is […], with two side fibrose mastopatia. On 19 Nov. 2001 by an echographic examination has been discovered malign formation in the left breast, sector 12h, with the above mentioned dimensions and deepness, (FIG. 1 and FIG. 2). The diagnosis was confirmed through punctual biopsy. The treatment by the above-mentioned method began on 23 Nov. 2001 in the evening. […] The procedures continued three times daily in the following days.

benign human skin tumors = details: through rub in
Source text: as §1

[3] = tested on: inflammatory processes, mushroom formations, and other pathological alterations of the tissues

Structure (SMILES): O=CO [formic acid, formic (methane) acid (HCOOH)]
- reaction when hitting places with pathologically altered tissue [1]: give pain reaction
- state of the tumor tissue ([2]; concluded from echography, biopsy and lack of pain by rub in): necrotized
- echographic size of the flack ([2]; echography 11 Dec. 2001 (FIG. 5)): the flack is diminished
- outcome of treatment of malign formation in the milk gland ([2]; only through rub in, formation 5.7 to 7.4 mm, about 8 mm deep): successfully implemented
- second punction biopsy, cancer cells ([2]; person, rub in three times daily from 23 Nov. 2001, biopsy 01 Dec. 2001): have not been observed cancer cells
- elimination of benign human skin tumors (benign human skin tumors): repeatedly implemented for the elimination
- action in inflammatory processes, mushroom formations and other tissue alterations ([3]; rub in, pulverizing, inhalations or other supply): acts very effectively and rapidly
- outcome in tooth grenolom ([3]; three cases): the extraction of the teeth was prevented
